“Also recorded” adds a separate entry of the source.
Experiment: Determination of hydrotrope utility (polarized light microscopy and rheology of compound/water/monoolein compositions)
Type: physicochemical
Settings: for Formation of cubic phase in equilibrium with liquid water: system of compound, monoolein and water
From the text: Whether a compound is suitable to use as ingredient (A) can be determined by one skilled in the art without undue experimentation. The determination can be made by preparing a composition comprising the compound to be tested for use as the hydrotrope, the selected amphiphile, and the selected solvent and allowing the composition to equilibrate, for example, by the method described below in Reference Example 1. If the composition forms a cubic phase or cubic phase in combination with another phase, then the hydrotrope is suitable to use in this invention. If the composition forms a cubic phase or cubic phase in combination with an isotropic liquid, then the hydrotrope is preferred.
Polarized light microscopy (PLM) can be used to determine whether the composition formed cubic phase. PLM can be carried out on a polarized light microscope or constructed light box, as described by Laughlin, R. G., J. Colloid Interface Sci., 55, 239-242 (1976). Polarized light microscope textures define the phase/colloidal state of sample. Lamellar and hexagonal phases give birefringence (see Hecht, E., Optics, 2nd ed., Addison-Wesley Publishing Co., Reading, Mass., pp. 282-289 (1984)) and distinct textures such as Maltese Crosses (see Rosevear, F. B., J. Am. Oil Chemists Soc., 31, 628-638 (1954)). This is a consequence of the anisotropic phase structure of these particular phases, and their orientation relative to polarization of the light. However, L1, L2, L3, and cubic phases show no birefringence and appear dark in the microscope. Birefringence is a function of sample thickness, so sometimes it is difficult to see with a light microscope. Instead, the bulk sample can be placed in the aforementioned light box to secure a very thick sample.
Cubic phases are very viscous while the other phases are (i.e., L1, L2, and L3) are less viscous, like water. Therefore, lack of birefringence in combination with bulk solid-like rheological properties indicates the presence of cubic phase.
A compound for use as a hydrotrope is dissolved in water in amounts to form a hydrotrope solution. The solution is added to monoolein (DIMODAN® MO90K) to yield a composition. The composition is left to equilibrate overnight at a temperature of 25 to 30° C.
PLM can be carried out on a polarized light microscope or constructed light box, as described by Laughlin, R. G., J. Colloid Interface Sci., 55, 239-242 (1976). Rheological properties of the composition are also observed.
Various compounds are evaluated according to Reference Example 1. The compounds, the compositions prepared, and the results are in Table E1, below. FIG. 4 is a ternary diagram 400 showing the data points in Example 3. FIG. 5 is a ternary diagram 500 for 1,2-hexanediol 516, monoolein 517, and water 518. […] FIG. 6 is a ternary diagram 600 for 1,2-hexanediol 613, monoolein 614, and water 615. […] FIG. 7 is a ternary diagram 700 for ethanol 713, monoolein 714, and water 715.

[1] = compound 10, water 80, amphiphile (monoolein) 10 (κ)
[2] = system with monoolein and water

SMILES: CCN(CC)CCOC(=O)c1ccc(N)cc1.Cl [procaine hydrogen chloride, reference compound]
- Phase(s) Formed [1]: cubic and L1
- Suitability as hydrotrope [2]: effective as hydrotropes

SMILES: OCCCCO [1,4-butanediol]
- Phase(s) Formed [1]: cubic and L1
- Suitability as hydrotrope [2]: effective as hydrotropes

SMILES: CCCCC(O)CO (stereo not shown) [1,2-hexanediol]
- Phase(s) Formed (FIG. 5 point 501, compound 10, water 81, amphiphile (monoolein) 9 (κ)): liquid water and L1
- Phase(s) Formed (FIG. 5 point 502, compound 10, water 71, amphiphile (monoolein) 19 (κ)): L1 and lamellar
- Phase(s) Formed (FIG. 5 point 503, compound 10, water 64, amphiphile (monoolein) 26 (κ)): L1 and lamellar
- Phase(s) Formed (FIG. 5 point 504, compound 12, water 53, amphiphile (monoolein) 35 (κ)): L1 and lamellar
- Phase(s) Formed (FIG. 5 point 505, compound 10, water 45, amphiphile (monoolein) 45 (κ)): L1 and lamellar
- Phase(s) Formed (FIG. 5 point 510, compound 20, water 40, amphiphile (monoolein) 40 (κ)): L1 and lamellar
- Phase(s) Formed (FIG. 6 point 601, compound 6, water 56, amphiphile (monoolein) 38 (κ)): cubic and lamellar
- Phase(s) Formed (FIG. 6 point 602, compound 4, water 58, amphiphile (monoolein) 38 (κ)): cubic and lamellar
- Phase(s) Formed (FIG. 6 point 603, compound 2, water 59, amphiphile (monoolein) 39 (κ)): cubic and lamellar
- Phase(s) Formed (FIG. 6 point 604, compound 6, water 38, amphiphile (monoolein) 56 (κ)): cubic and lamellar
- Phase(s) Formed (FIG. 6 point 605, compound 4, water 39, amphiphile (monoolein) 57 (κ)): cubic and lamellar
- Phase(s) Formed (FIG. 6 point 606, compound 2, water 39, amphiphile (monoolein) 59 (κ)): cubic and lamellar
- Phase(s) Formed (FIG. 6 point 607, compound 6, water 28, amphiphile (monoolein) 66 (κ)): cubic and lamellar
- Phase(s) Formed (FIG. 6 point 608, compound 2, water 29, amphiphile (monoolein) 69 (κ)): cubic and lamellar
- Phase(s) Formed (FIG. 6 point 609, compound 16, water 13, amphiphile (monoolein) 71 (κ)): lamellar
- Phase(s) Formed (FIG. 6 point 610, compound 10, water 14, amphiphile (monoolein) 76 (κ)): lamellar
- Phase(s) Formed (FIG. 6 point 611, compound 5, water 14, amphiphile (monoolein) 81 (κ)): lamellar
- Phase(s) Formed (FIG. 6 point 612, compound 5, water 12, amphiphile (monoolein) 83 (κ)): lamellar
- Formation of cubic phase in equilibrium with liquid water: does not form cubic phase in equilibrium with liquid water
- Suitability as hydrotrope [2]: suitable to use as a hydrotrope

SMILES: CC(C)O [Example 2-propanol, 2-propanol]
- Phase(s) Formed [1]: does not form cubic phase; also recorded: Turbid solution and L1
- Suitability as hydrotrope [2]: not preferred to use as a hydrotrope

SMILES: CCO [ethanol]
- Phase(s) Formed (FIG. 4 point 401, compound 20, water 48, amphiphile (monoolein) 32 (κ)): L1 and lamellar
- Phase(s) Formed (FIG. 4 point 404, compound 9, water 55, amphiphile (monoolein) 36 (κ)): cubic and lamellar
- Phase(s) Formed (FIG. 4 point 405, compound 6, water 56, amphiphile (monoolein) 38 (κ)): cubic and lamellar
- Phase(s) Formed (FIG. 7 point 701, compound 11, water 88, amphiphile (monoolein) 1 (κ)): cubic & isotropic liquid
- Phase(s) Formed (FIG. 7 point 702, compound 10, water 70, amphiphile (monoolein) 20 (κ)): cubic & isotropic liquid
- Phase(s) Formed (FIG. 7 point 703, compound 10, water 59, amphiphile (monoolein) 31 (κ)): cubic & isotropic liquid
- Phase(s) Formed (FIG. 7 point 704, compound 10, water 48, amphiphile (monoolein) 42 (κ)): cubic & isotropic liquid
- Phase(s) Formed (FIG. 7 point 706, compound 20, water 55, amphiphile (monoolein) 25 (κ)): L1 and lamellar
- Phase(s) Formed (FIG. 7 point 707, compound 19, water 49, amphiphile (monoolein) 32 (κ)): L1 and lamellar
- Phase(s) Formed (FIG. 7 point 708, compound 20, water 42, amphiphile (monoolein) 39 (κ)): lamellar
- Phase(s) Formed (FIG. 7 point 709, compound 29, water 60, amphiphile (monoolein) 11 (κ)): L1 and lamellar
- Phase(s) Formed (FIG. 7 point 710, compound 28, water 52, amphiphile (monoolein) 20 (κ)): L1 and lamellar
- Phase(s) Formed (FIG. 7 point 711, compound 30, water 40, amphiphile (monoolein) 30 (κ)): lamellar
- Phase(s) Formed (FIG. 7 point 712, compound 30, water 29, amphiphile (monoolein) 41 (κ)): lamellar
- Formation of cubic phase in equilibrium with liquid water: can be formed
- Suitability as hydrotrope [2]: preferred hydrotrope
- Amount of compound at which it can be used as a hydrotrope (system with monoolein and water, % of the system): less than or equal to 10%

From patent US6773627B2, “Cubic liquid crystalline compositions and methods for their preparation” (Children's Hospital Research Foundation, priority 2000, dated 2004)
